# Calls of active or inactive are those of the source. No cut-off for these calls is given here.
# Molecular target: Proto-oncogene tyrosine-protein kinase Src (Homo sapiens, UniProt P12931)
# Experiment: Inhibition of Src after 10 mins by radiometric phosphate incorporation assay
# Conditions: not given
# Sequence of Proto-oncogene tyrosine-protein kinase Src (P12931 2-536 limits assumed): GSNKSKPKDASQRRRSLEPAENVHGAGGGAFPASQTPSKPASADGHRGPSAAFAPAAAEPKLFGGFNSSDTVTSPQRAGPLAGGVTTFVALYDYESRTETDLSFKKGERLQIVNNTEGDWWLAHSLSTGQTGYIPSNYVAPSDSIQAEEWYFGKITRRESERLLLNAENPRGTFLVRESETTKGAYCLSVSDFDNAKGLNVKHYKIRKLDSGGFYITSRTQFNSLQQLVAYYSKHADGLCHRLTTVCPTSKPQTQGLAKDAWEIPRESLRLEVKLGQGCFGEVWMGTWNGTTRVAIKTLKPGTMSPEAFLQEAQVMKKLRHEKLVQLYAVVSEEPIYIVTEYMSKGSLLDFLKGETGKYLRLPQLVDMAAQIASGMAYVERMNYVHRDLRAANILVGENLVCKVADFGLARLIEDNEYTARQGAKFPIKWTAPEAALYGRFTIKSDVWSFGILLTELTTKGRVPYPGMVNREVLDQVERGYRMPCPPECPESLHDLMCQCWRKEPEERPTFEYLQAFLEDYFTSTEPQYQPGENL
row,SMILES,Ki [nM]
1,CNc1cccc(-c2c[nH]c(=O)c(NC(=O)c3ccc(N4CCCCC4)cc3)c2)c1,220
2,CN(C)c1ccc(C(=O)Nc2cc(-c3ccncc3)c[nH]c2=O)cc1,2800
3,CNc1cc(C#N)cc(-c2c[nH]c(=O)c(NC(=O)c3ccc(N4CCC[C@H]4CN4CCCC4)cc3)c2)c1,480
4,O=C(Nc1cc(-c2cccc(NC3CC3)n2)c[nH]c1=O)c1ccc(N2CCCCC2)cc1,> 4000
5,O=C(Nc1cc(-c2ccncc2)c[nH]c1=O)c1ccc(N2CCCCC2)cc1,1800
6,CC(C)(C)c1ccc(C(=O)Nc2cc(-c3ccncc3)c[nH]c2=O)cc1,1320
7,CNc1cncc(-c2c[nH]c(=O)c(NC(=O)c3ccc(N4CCC[C@H]4CN4CCCC4)cc3)c2)c1,280
8,CNc1cc(F)cc(-c2c[nH]c(=O)c(NC(=O)c3ccc(N4CCC[C@H]4CN4CCCC4)cc3)c2)c1,300

# Molecular target: T1, Tyrosine-protein kinase ITK/TSK (Homo sapiens, UniProt Q08881)
# T1 sequence (Q08881 whole entry): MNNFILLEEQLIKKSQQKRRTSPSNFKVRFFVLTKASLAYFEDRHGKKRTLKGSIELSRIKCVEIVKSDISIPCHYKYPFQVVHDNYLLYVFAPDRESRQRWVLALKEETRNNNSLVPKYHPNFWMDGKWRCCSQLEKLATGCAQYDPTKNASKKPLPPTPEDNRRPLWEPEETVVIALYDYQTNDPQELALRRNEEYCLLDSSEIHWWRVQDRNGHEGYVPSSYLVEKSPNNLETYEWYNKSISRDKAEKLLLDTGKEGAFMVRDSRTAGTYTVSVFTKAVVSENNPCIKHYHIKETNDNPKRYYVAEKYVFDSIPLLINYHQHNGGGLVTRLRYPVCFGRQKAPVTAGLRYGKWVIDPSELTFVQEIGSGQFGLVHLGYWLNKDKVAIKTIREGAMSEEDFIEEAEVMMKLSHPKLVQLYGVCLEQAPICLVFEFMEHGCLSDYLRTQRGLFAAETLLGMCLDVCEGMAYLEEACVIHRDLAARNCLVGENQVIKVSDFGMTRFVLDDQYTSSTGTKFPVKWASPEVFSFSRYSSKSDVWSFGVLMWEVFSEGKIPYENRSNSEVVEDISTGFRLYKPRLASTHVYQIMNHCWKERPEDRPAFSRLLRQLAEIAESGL
# Experiment: Inhibition of Itk after 40 mins by radiometric phosphate incorporation assay
# Conditions: not given
row,SMILES,Ki [nM]
1,CNc1nccc(-c2c[nH]c(=O)c(NC(=O)c3ccc(N4CCCCC4)cc3)c2)n1,16
2,CNc1cccc(-c2c[nH]c(=O)c(NC(=O)c3ccc(N4CCCCC4)cc3)c2)c1,145
3,CN(C)c1ccc(C(=O)Nc2cc(-c3ccncc3)c[nH]c2=O)cc1,210
4,O=C(Nc1cc(-c2ccncc2)c[nH]c1=O)c1ccc(C2CCCCC2)cc1,220
5,CNc1cc(C#N)cc(-c2c[nH]c(=O)c(NC(=O)c3ccc(N4CCC[C@H]4CN4CCCC4)cc3)c2)c1,27
6,CCc1ccc(C(=O)Nc2cc(-c3ccncc3)c[nH]c2=O)cc1,530
7,O=C(Nc1cc(-c2ccncc2)c[nH]c1=O)c1ccccc1,1300
8,O=C(Nc1cc(-c2ccncc2)c[nH]c1=O)c1ccc(N2CCCC2)cc1,170
9,O=C(Nc1cc(-c2cccc(NC3CC3)n2)c[nH]c1=O)c1ccc(N2CCCCC2)cc1,> 2000
10,O=C(Nc1cc(-c2ccncc2)c[nH]c1=O)C1CCCCC1,> 30000
11,CC(C)(C)c1ccc(C(=O)Nc2cc(-c3ccncc3)c[nH]c2=O)cc1,120
12,N#Cc1ccc(C(=O)Nc2cc(-c3ccncc3)c[nH]c2=O)cc1,> 6000
13,O=C(Nc1ccc(N2CCCCC2)cc1)c1cc(-c2ccncc2)c[nH]c1=O,140
14,CNc1cncc(-c2c[nH]c(=O)c(NC(=O)c3ccc(N4CCC[C@H]4CN4CCCC4)cc3)c2)c1,20
15,CNc1cc(F)cc(-c2c[nH]c(=O)c(NC(=O)c3ccc(N4CCC[C@H]4CN4CCCC4)cc3)c2)c1,20
16,Cc1cccc(C(=O)Nc2cc(-c3ccncc3)c[nH]c2=O)c1,2100
17,O=C(Cc1ccccc1)Nc1cc(-c2ccncc2)c[nH]c1=O,> 30000

# Molecular target: Mast/stem cell growth factor receptor Kit (Homo sapiens, UniProt P10721)
# Experiment: Inhibition of c-Kit after 45 mins by radiometric phosphate incorporation assay
# Conditions: not given
# Sequence of Mast/stem cell growth factor receptor Kit (P10721 whole entry): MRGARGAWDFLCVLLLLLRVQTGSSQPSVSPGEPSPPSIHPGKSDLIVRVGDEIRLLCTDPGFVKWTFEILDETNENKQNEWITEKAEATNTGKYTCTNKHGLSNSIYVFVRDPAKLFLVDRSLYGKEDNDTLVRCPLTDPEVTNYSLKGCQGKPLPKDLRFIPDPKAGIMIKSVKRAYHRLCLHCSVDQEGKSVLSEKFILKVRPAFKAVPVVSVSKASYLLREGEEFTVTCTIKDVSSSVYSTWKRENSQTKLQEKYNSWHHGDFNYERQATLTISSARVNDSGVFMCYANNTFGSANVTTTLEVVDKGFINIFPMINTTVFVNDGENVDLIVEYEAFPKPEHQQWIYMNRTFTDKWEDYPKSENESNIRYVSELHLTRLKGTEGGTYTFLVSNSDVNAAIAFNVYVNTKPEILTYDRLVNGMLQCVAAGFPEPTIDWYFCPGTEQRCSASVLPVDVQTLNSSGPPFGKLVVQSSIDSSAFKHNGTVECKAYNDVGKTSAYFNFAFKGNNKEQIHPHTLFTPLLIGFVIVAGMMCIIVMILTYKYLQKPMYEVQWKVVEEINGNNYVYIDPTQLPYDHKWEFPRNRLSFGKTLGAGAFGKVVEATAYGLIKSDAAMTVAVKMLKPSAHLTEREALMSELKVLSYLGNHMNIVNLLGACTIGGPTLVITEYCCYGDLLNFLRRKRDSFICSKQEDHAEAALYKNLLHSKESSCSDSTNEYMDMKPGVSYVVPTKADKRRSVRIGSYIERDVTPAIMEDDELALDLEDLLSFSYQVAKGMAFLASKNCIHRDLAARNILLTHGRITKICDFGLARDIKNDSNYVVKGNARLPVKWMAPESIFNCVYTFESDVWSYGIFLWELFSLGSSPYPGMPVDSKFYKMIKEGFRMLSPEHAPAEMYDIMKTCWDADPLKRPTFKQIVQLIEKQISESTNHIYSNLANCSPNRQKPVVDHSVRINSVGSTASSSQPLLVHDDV
row,SMILES,Ki [nM]
1,CNc1nccc(-c2c[nH]c(=O)c(NC(=O)c3ccc(N4CCCCC4)cc3)c2)n1,< 10
2,CNc1cccc(-c2c[nH]c(=O)c(NC(=O)c3ccc(N4CCCCC4)cc3)c2)c1,81
3,CN(C)c1ccc(C(=O)Nc2cc(-c3ccncc3)c[nH]c2=O)cc1,46
4,CNc1cc(C#N)cc(-c2c[nH]c(=O)c(NC(=O)c3ccc(N4CCC[C@H]4CN4CCCC4)cc3)c2)c1,400
5,CNc1cccc(-c2c[nH]c(=O)c(NC(=O)c3ccc(N4CCCCC4)cc3)c2)n1,148
6,CNc1cc(-c2c[nH]c(=O)c(NC(=O)c3ccc(N4CCCCC4)cc3)c2)ncn1,83
7,O=C(Nc1cc(-c2ccncc2)c[nH]c1=O)c1ccc(N2CCCCC2)cc1,12
8,CNc1cncc(-c2c[nH]c(=O)c(NC(=O)c3ccc(N4CCCCC4)cc3)c2)n1,155
9,CNc1cncc(-c2c[nH]c(=O)c(NC(=O)c3ccc(N4CCCCC4)cc3)c2)c1,270
10,CNc1cc(-c2c[nH]c(=O)c(NC(=O)c3ccc(N4CCCCC4)cc3)c2)ccn1,12
11,CC(C)(C)c1ccc(C(=O)Nc2cc(-c3ccncc3)c[nH]c2=O)cc1,27
12,CNc1cncc(-c2c[nH]c(=O)c(NC(=O)c3ccc(N4CCC[C@H]4CN4CCCC4)cc3)c2)c1,1300
13,CNc1cc(F)cc(-c2c[nH]c(=O)c(NC(=O)c3ccc(N4CCC[C@H]4CN4CCCC4)cc3)c2)c1,400

# Tested on: not listed separately
# Experiment: Solubility of the compound in phosphate buffer at pH 7.4 by high throughput shake flask assay
# Assay type: physicochemical
# Conditions: not given
row,SMILES,solubility thermodynamic [µg/mL]
1,CNc1cc(C#N)cc(-c2c[nH]c(=O)c(NC(=O)c3ccc(N4CCC[C@H]4CN4CCCC4)cc3)c2)c1,23
2,CNc1cncc(-c2c[nH]c(=O)c(NC(=O)c3ccc(N4CCC[C@H]4CN4CCCC4)cc3)c2)c1,115
3,CNc1cc(F)cc(-c2c[nH]c(=O)c(NC(=O)c3ccc(N4CCC[C@H]4CN4CCCC4)cc3)c2)c1,34

# Tested on: not listed separately
# Experiment: Permeability across basolateral to apical side of human Caco2 cells after 120 mins by LC-MS/MS analysis
# Assay type: ADME, cell-based
# Conditions: Caco-2, read-out: permeability
row,SMILES,Papp B→A at 2 h [×10⁻⁶ cm/s]
1,CNc1cc(C#N)cc(-c2c[nH]c(=O)c(NC(=O)c3ccc(N4CCC[C@H]4CN4CCCC4)cc3)c2)c1,16.4
2,CNc1cc(F)cc(-c2c[nH]c(=O)c(NC(=O)c3ccc(N4CCC[C@H]4CN4CCCC4)cc3)c2)c1,19.9

# Tested on: not listed separately
# Experiment: Octanol-phosphate buffer partition coefficient, log D of the compound at pH 7.4 by HPLC analysis
# Assay type: physicochemical
# Conditions: not given
row,SMILES,logD
1,CNc1cc(C#N)cc(-c2c[nH]c(=O)c(NC(=O)c3ccc(N4CCC[C@H]4CN4CCCC4)cc3)c2)c1,3.9
2,CNc1cncc(-c2c[nH]c(=O)c(NC(=O)c3ccc(N4CCC[C@H]4CN4CCCC4)cc3)c2)c1,2.9
3,CNc1cc(F)cc(-c2c[nH]c(=O)c(NC(=O)c3ccc(N4CCC[C@H]4CN4CCCC4)cc3)c2)c1,3.9

# Tested on: not listed separately
# Experiment: Permeability across apical to basolateral side of human Caco2 cells after 120 mins by LC-MS/MS analysis
# Assay type: ADME, cell-based
# Conditions: Caco-2, read-out: permeability
row,SMILES,Papp A→B at 2 h [×10⁻⁶ cm/s]
1,CNc1cc(C#N)cc(-c2c[nH]c(=O)c(NC(=O)c3ccc(N4CCC[C@H]4CN4CCCC4)cc3)c2)c1,3.3
2,CNc1cc(F)cc(-c2c[nH]c(=O)c(NC(=O)c3ccc(N4CCC[C@H]4CN4CCCC4)cc3)c2)c1,3.3

# Molecular target: Tyrosine-protein kinase ITK/TSK (Homo sapiens) (UniProt Q08881)
# Conditions: 3 uM
# Description: Inhibition of Itk at 3 uM after 40 mins by radiometric phosphate incorporation assay
row,SMILES,inhibition [%]
1,N#Cc1ccc(C(=O)Nc2cc(-c3ccncc3)c[nH]c2=O)cc1,15

# Molecular target: Tyrosine-protein kinase ITK/TSK (Homo sapiens) (UniProt Q08881)
# Experiment: Inhibition of Itk at 30 uM after 40 mins by radiometric phosphate incorporation assay
# Conditions: not given
row,SMILES,inhibition
1,Nc1cc(-c2ccncc2)c[nH]c1=O,inactive

# Molecular target: T2, Receptor-type tyrosine-protein kinase FLT3 (Homo sapiens, UniProt P36888)
# T2 sequence (P36888 whole entry): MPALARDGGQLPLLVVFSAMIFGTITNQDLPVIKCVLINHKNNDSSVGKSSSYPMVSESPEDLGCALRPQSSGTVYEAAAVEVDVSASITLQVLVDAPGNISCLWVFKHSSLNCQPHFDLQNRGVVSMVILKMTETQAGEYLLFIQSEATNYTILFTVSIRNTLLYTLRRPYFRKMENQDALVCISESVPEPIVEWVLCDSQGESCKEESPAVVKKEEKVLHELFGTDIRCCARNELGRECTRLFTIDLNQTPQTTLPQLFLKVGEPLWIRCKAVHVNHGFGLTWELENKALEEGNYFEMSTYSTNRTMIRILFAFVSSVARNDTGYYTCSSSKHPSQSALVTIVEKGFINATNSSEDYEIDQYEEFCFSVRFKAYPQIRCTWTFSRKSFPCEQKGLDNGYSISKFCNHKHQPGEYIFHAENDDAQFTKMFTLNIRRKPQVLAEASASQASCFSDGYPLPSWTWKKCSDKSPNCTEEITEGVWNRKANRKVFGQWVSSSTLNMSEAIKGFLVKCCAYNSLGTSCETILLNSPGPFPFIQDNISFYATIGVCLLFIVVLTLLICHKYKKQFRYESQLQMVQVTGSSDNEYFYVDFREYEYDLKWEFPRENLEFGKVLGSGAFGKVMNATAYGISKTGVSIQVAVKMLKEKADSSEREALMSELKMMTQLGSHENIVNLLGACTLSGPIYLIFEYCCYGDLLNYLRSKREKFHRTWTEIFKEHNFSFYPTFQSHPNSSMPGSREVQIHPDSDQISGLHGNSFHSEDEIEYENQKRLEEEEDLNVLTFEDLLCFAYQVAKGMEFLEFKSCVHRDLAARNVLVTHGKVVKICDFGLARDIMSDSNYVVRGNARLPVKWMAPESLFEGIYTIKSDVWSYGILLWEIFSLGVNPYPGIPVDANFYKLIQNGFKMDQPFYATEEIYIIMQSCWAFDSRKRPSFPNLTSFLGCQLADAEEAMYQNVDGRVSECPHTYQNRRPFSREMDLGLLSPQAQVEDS
# Experiment: Inhibition of Flt3 after 20 mins by radiometric phosphate incorporation assay
# Conditions: not given
row,SMILES,Ki [nM]
1,CNc1nccc(-c2c[nH]c(=O)c(NC(=O)c3ccc(N4CCCCC4)cc3)c2)n1,5
2,CNc1cccc(-c2c[nH]c(=O)c(NC(=O)c3ccc(N4CCCCC4)cc3)c2)c1,80
3,CN(C)c1ccc(C(=O)Nc2cc(-c3ccncc3)c[nH]c2=O)cc1,8
4,CNc1cc(C#N)cc(-c2c[nH]c(=O)c(NC(=O)c3ccc(N4CCC[C@H]4CN4CCCC4)cc3)c2)c1,410
5,CNc1cccc(-c2c[nH]c(=O)c(NC(=O)c3ccc(N4CCCCC4)cc3)c2)n1,69
6,CNc1cc(-c2c[nH]c(=O)c(NC(=O)c3ccc(N4CCCCC4)cc3)c2)ncn1,20
7,O=C(Nc1cc(-c2cccc(NC3CC3)n2)c[nH]c1=O)c1ccc(N2CCCCC2)cc1,120
8,O=C(Nc1cc(-c2ccncc2)c[nH]c1=O)c1ccc(N2CCCCC2)cc1,32
9,CNc1cncc(-c2c[nH]c(=O)c(NC(=O)c3ccc(N4CCCCC4)cc3)c2)n1,110
10,CNc1cncc(-c2c[nH]c(=O)c(NC(=O)c3ccc(N4CCCCC4)cc3)c2)c1,1050
11,CNc1cc(-c2c[nH]c(=O)c(NC(=O)c3ccc(N4CCCCC4)cc3)c2)ccn1,6
12,CC(C)(C)c1ccc(C(=O)Nc2cc(-c3ccncc3)c[nH]c2=O)cc1,11
13,CNc1cncc(-c2c[nH]c(=O)c(NC(=O)c3ccc(N4CCC[C@H]4CN4CCCC4)cc3)c2)c1,140
14,CNc1cc(F)cc(-c2c[nH]c(=O)c(NC(=O)c3ccc(N4CCC[C@H]4CN4CCCC4)cc3)c2)c1,80

# Source: ChEMBL document CHEMBL1765075, “Discovery and structure-activity relationship of 3-aminopyrid-2-ones as potent and selective interleukin-2 inducible T-cell kinase (Itk) inhibitors” (J Med Chem, 2011)
